From patent publication US4145554A, “3-Nitropyrazole derivatives” (Eli Lilly and Company, priority 1977, dated 1979)
In brackets after ≈: the same amount, converted by molar mass. Read-outs that look alike come from different tables or passages of the source.

How the values were obtained:
Escherichia coli = assay: in vitro tube dilution test (MIC); format: cell-based; settings: tube dilution, read-out: MIC
Text: (§1) Our compound, 1-(2-hydroxyethyl)-3-nitro-4-pyrazolecarboxamide, has been extensively tested in vitro to determine the range of microorganisms against which it is active. The table of data below reports the minimum inhibitory concentration (MIC) at which the compound is effective in controlling a variety of microorganisms in a standard tube dilution test system. The MIC is reported as micrograms of compound per milliliter.
(§2) Other compounds of our invention have also been tested in the tube dilution test and shown to have in vitro activity against a number of microorganisms. The table below reports tests of a number of exemplary compounds against exemplary microorganisms. The compounds are identified by their numbers in the listing above. The data are reported as the MIC in micrograms per milliliter against the named exemplary microorganisms.

Mycoplasma gallisepticum = assay: in vitro tube dilution test (MIC); format: cell-based; settings: Mycoplasmoides gallisepticum; Mycoplasma gallisepticum, tube dilution; read-out: MIC
Text: as §1, §2

Salmonella dublin = assay: in vitro tube dilution test (MIC); format: cell-based; settings: Salmonella enterica; Salmonella dublin, tube dilution; read-out: MIC
Text: (§3) The other preferred compounds of our invention have also been thoroughly tested in the in vitro tube dilution test.
as §2

[1] = tested on: Staphylococcus aureus sp. 1130; assay: in vitro tube dilution test (MIC); format: cell-based; settings: read-out: MIC
Text: as §3, §2

Vibrio coli 3811 = assay: in vitro tube dilution test (MIC); format: cell-based; settings: Campylobacter coli; Vibrio coli 3811, tube dilution; read-out: MIC
Text: as §3, §2

Streptococcus sp. 80 = assay: in vitro tube dilution test (MIC); format: cell-based; settings: Streptococcus sp. 80, tube dilution; read-out: MIC
Text: as §2

H. meleagridis [2] = assay: Blackhead in poultry, chicks; format: in vivo
Description: (§4) One- to three-week-old chicks and turkey poults were obtained from homogeneous source flocks and allocated into treatment groups. Some groups were held as infected, untreated controls, and other groups were treated with 3-nitropyrazoles by administering the compounds in the birds' feed. Various concentrations of the pyrazoles were administered to determine the least concentration which protected the birds. A few days after the administration of medicated feed began, all of the birds were challenged by rectally administering a suspension of at least 5,000 H. meleagridis protozoa per chick. The challenge organisms had been originally obtained from infected chickens, and were grown in vitro to provide a supply of organisms for testing.
(§5) The birds were held for about seven days after the challenge was administered, during which time the administration of pyrazole-medicated feed was continued. Then all of the chicks, including the untreated, infected controls, were sacrificed and necropsied. The cecum and the liver of each bird were examined for characteristic H. meleagridis lesions.
(§6) For each compound, the lowest feed concentration which gave an active response is indicated. While feed consumption data were not taken during the tests, the birds ate at such a rate that a feed concentration of 0.02 percent is equivalent to a treatment rate of about 10 mg./kg./day.

Salmonella typhimurium = assay: Salmonellosis in chickens, single injection to day-old chicks; format: in vivo; settings: for responders at 60 mg/kg: Salmonella enterica, TYPHIMURIUM, 168 h, single injection of 60 mg./kg., seven days, read-out: Survival (converted)
Description: A number of our 3-nitropyrazoles have been tested against an induced infection of Salmonella typhimurium in day-old chicks. The test was conducted by administering a single injection of 60 mg./kg. of the compounds to each of five chicks. The following day, the chicks were challenged by the subcutaneous injection of a dispersion of S. typhimurium organisms sufficient to kill most or all of the untreated control chicks.
Some of the compounds were tested more than once, in which instances the data are reported as the total survivors from the multiple treatment groups. Untreated, challenged control groups of chicks were tested together with each batch of groups of chicks to which test compounds were administered. Since the mortality of the untreated control chicks varied somewhat from one group of tests to another, results of the untreated control groups are reported below with each test.

Erwinia amylovora = assay: Fire blight of pear, in vivo greenhouse test
Description: An in vivo test was conducted against the fire blight organism, Erwinia amylovora. Plants infected with E. amylovora were sprayed with aqueous dispersions containing 100 ppm. and 500 ppm. of the test compounds. […] The compounds are identified below by their compound numbers in the above listing.

H. meleagridis [3] = assay: Blackhead in poultry, turkeys; format: in vivo
Description: as §4, §5, §6

Mycoplasma hyorhinis = assay: in vitro tube dilution test (MIC); format: cell-based
Text: as §1, §3

Pseudomonas sp. = assay: in vitro tube dilution test (MIC); format: cell-based
Text: as §1, §3

Pasteurella multocida = assay: in vitro tube dilution test (MIC); format: cell-based; settings: tube dilution, read-out: MIC
Text: as §1, §3, §2

[4] = tested on: Mycoplasma gallisepticum 38502; assay: in vitro tube dilution test (MIC); format: cell-based; settings: Mycoplasmoides gallisepticum; Mycoplasma gallisepticum 38502, tube dilution
Text: as §3

[5] = tested on: Staphylococcus aureus 3055; assay: in vitro tube dilution test (MIC); format: cell-based; settings: Staphylococcus aureus 3055, tube dilution
Text: as §3

Streptococcus pyogenes = assay: Tests in mice, Streptococcus pyogenes infection; format: in vivo; settings: S. pyogenes; for Days Survived: two subcutaneous doses of 83 mg./kg., 1 and 5 hours; for ED50: Streptococcus pyogenes, sc, subcutaneous, 1 and 5 hours post-inoculation
Description: (§7) Groups of laboratory mice were inoculatd with E. coli or with Streptococcus pyogenes. The 3-nitropyrazoles were administered in two different modes to the infected mice. In one group of tests, the compound was administered in two subcutaneous doses of 83 mg./kg. each, given 1 and 5 hours after the mice were inoculated with the organism. The mice were observed, and the results reported below as the number of days the treated mice survived the challenge.
(§8) In the other group of tests, the dose of each compound which allowed 50 percent of the treated mice to survive the challenge was determined. Again, the compound was administered in subcutane divided doses, 1 and 5 hours post-inoculation.

E. coli = assay: Tests in mice, E. coli infection; format: in vivo; settings: for ED50: Escherichia coli, sc, subcutaneous, 1 and 5 hours post-inoculation; for Days Survived: two subcutaneous doses of 83 mg./kg., 1 and 5 hours
Description: as §7, §8

S. typhimurium = assay: Salmonella typhimurium in chickens, medicated feed; format: in vivo, chicks; settings: Test C, 200 gm./ton feed
avian E. coli = assay: Colibacillosis in chickens, medicated feed; format: in vivo; settings: 300 gm./ton feed; about 5 weeks old; 10^-2 dilution challenge; first test
[6] = tested on: Salmonella heidelburg 1593; assay: in vitro tube dilution test (MIC); format: cell-based; settings: Salmonella heidelburg 1593, tube dilution
Text: as §1, §3

Salmonella pullorum Ill. = assay: in vitro tube dilution test (MIC); format: cell-based; settings: Salmonella enterica
Text: as §1, §3

[7] = tested on: Salmonella typhimurium 1335; assay: in vitro tube dilution test (MIC); format: cell-based; settings: Salmonella enterica; Salmonella typhimurium 1335, tube dilution
Text: as §1, §3

[8] = Staphylococcus aureus sp. 1130, tube dilution
[9] = Staphylococcus aureus, SP.1130, Staphyloccocus 1130, tube dilution

Structure (SMILES)	MIC (Escherichia coli) [µg/mL]	MIC (Mycoplasma gallisepticum) [µg/mL]	MIC (Salmonella dublin) [µg/mL]	MIC [1, 8] [µg/mL]	MIC (Vibrio coli 3811) [µg/mL]	MIC (Streptococcus sp. 80) [µg/mL]	Active Level (lowest feed concentration which gave an active response) (H. meleagridis [2])	MIC (Pasteurella multocida) [µg/mL]	Days Survived (Streptococcus pyogenes) [days]	ED50 (E. coli) [mg/kg]	Days Survived (E. coli) [days]	responders at 60 mg/kg (Salmonella typhimurium) [%]	other results
CNc1nnc(-c2cn(C)nc2[N+](=O)[O-])s1 [Compound 2, 2-(1-methyl-3-nitro-4-pyrazolyl)-5-methylamino-1,3,4-thiadiazole]	50 (≈ 208 µM)	6.25 (≈ 26 µM)	50 (≈ 208 µM)	50 (≈ 208 µM)	25 (≈ 104 µM)	50 (≈ 208 µM)	.02%						chicks protected of the 5-bird treated group (Salmonella typhimurium; salmonella challenge): at least three chicks of the 5-bird treated group
Cn1cc(C(N)=O)c([N+](=O)[O-])n1 [Compound 3, 1-methyl-3-nitro-4-pyrazolecarboxamide]	12.5 (≈ 73.5 µM)	50 (≈ 294 µM)	6.25 (≈ 36.7 µM)	12.5 (≈ 73.5 µM)	6.25 (≈ 36.7 µM)	100 (≈ 588 µM)	.02%						Percent Control of fire blight (Erwinia amylovora; 100 ppm.): 25%; Percent Control of fire blight (Erwinia amylovora; 500 ppm.): 75%
NC(=O)c1cn(CCc2ccccc2)nc1[N+](=O)[O-] [Compound 17, 1-phenethyl-3-nitro-4-pyrazolecarboxamide]							.0067%						Active Level (lowest feed concentration which gave an active response) (H. meleagridis [3]): .02%
CCOCCn1cc(C(N)=O)c([N+](=O)[O-])n1 [Compound 34, 1-(2-ethoxyethyl)-3-nitro-4-pyrazolecarboxamide]			25 (≈ 110 µM)		50 (≈ 219 µM)			25 (≈ 110 µM)	5.0	> 41	7.0	40	MIC (Mycoplasma hyorhinis): 50 µg/mL (≈ 219 µM); MIC (Pseudomonas sp.): 50 µg/mL (≈ 219 µM); MIC [4]: 50 µg/mL (≈ 219 µM); MIC [5]: 100 µg/mL (≈ 438 µM); MIC [1, 9]: 6.25 µg/mL (≈ 27.4 µM); Percent Control of fire blight (Erwinia amylovora; 100 ppm.): 33%; Percent Control of fire blight (Erwinia amylovora; 500 ppm.): 66%; Active Level (lowest feed concentration which gave an active response) (H. meleagridis [3]): .02%; Survival (S. typhimurium): 25/48; Avg. Wt. (S. typhimurium; surviving chicks): 62 gm.; E. coli Lesions (avian E. coli): 11/30; Mortality (avian E. coli): 0/30; Wt. (avian E. coli): 1136 gm.
CCS(=O)(=O)CCn1cc(C(N)=O)c([N+](=O)[O-])n1 [Compound 35, 1-(2-ethylsulfonylethyl)-3-nitro-4-pyrazolecarboxamide]	50 (≈ 181 µM)	> 50	50 (≈ 181 µM)	3.12 (≈ 11.3 µM)	50 (≈ 181 µM)	25 (≈ 90.5 µM)		6.25 (≈ 22.6 µM)	7.0		1.0	80	ED50 (Streptococcus pyogenes): 36.2 mg/kg
CNC(=O)c1cn(CCO)nc1[N+](=O)[O-] [Compound 58, 1-(2-hydroxyethyl)-N-methyl-3-nitro-4-pyrazolecarboxamide]			12.5 (≈ 58.4 µM)		25 (≈ 117 µM)			0.78 (≈ 3.64 µM)	1.8	40	7.0	90	MIC (Pseudomonas sp.): 25 µg/mL (≈ 117 µM); MIC [6]: 12.5 µg/mL (≈ 58.4 µM); MIC (Salmonella pullorum Ill.): 3.12 µg/mL (≈ 14.6 µM); MIC [7]: 12.5 µg/mL (≈ 58.4 µM); MIC [4]: 6.25 µg/mL (≈ 29.2 µM); MIC [5]: 10 µg/mL (≈ 46.7 µM); MIC [1, 9]: 12.5 µg/mL (≈ 58.4 µM)
CNC(=O)c1cn(C)nc1[N+](=O)[O-] [Compound 61, N,1-dimethyl-3-nitro-4-pyrazolecarboxamide]	50 (≈ 272 µM)	12.5 (≈ 67.9 µM)	50 (≈ 272 µM)	50 (≈ 272 µM)		50 (≈ 272 µM)			1.0	68		70	ED50 (Streptococcus pyogenes): > 83 mg/kg
